Measurements reported in US20090253712A1, “AQUEOUS SOLVENT SYSTEM FOR SOLUBILIZATION OF AZOLE COMPOUNDS” (SEMMELWEIS EGYETEM, priority 2008, published 2009).
In brackets after ≈: the same amount, converted by molar mass. Where two headings read alike, the source gives them in different places.

How the values were obtained:
[1] = Solubility tests of active agent in solvent systems; format: physicochemical; conditions: for solubility: thermodynamic from solid; for Solubility in the compositions of Table 5 (in words): 3% surfactant, 25% co-solvent and pH adjuster (pH 3.1); for Solubilized miconazole / ketoconazole / itraconazole ± S.D.: Table 5: 1.5% sodium taurocholeate + 1.5% polysorbate 80 + 15% ethanol + 10% propylene glycol + ammonium acetate pH 3.1
Description: General example for the solubility tests
Each of the solutions applied in the solubilization tests were prepared as follows (the specific amount of the components comes from the Tables below):
1. 0.05M ammonium acetate (as pH-adjuster) solution was prepared in a volumetric flask and the pH of this solution was set to pH 3.1 with glacial acetic acid.
2. The specific amount of co-solvent was measured into a beaker and the specific amount of the previously prepared 0.05M ammonium acetate solution was added. The pH of this solution was measured and set to pH 3.1 with glacial acetic acid.
3. The specific amount of surfactant was added to the solution.
4. This solvent system was vigorously shaken until complete homogenization of the solution was achieved.
5. Aliquot amount of this solvent system was measured and the specific amount of the active agent was added to the solution.
The Tables below define the composition of each solution tested and the amount of the active agent which could be solubilized by the applied solvent system.
The amount of the co-solvent is given in % by volume and the amount of the surfactant is given in % by weight in each table.

[2] = data from U.S. Pat. No. 6,383,471, cited from earlier work
[3] = Stability on dilution with infusions; format: physicochemical; conditions: for Concentration of polysorbate 80 necessary to keep miconazole in solution on dilution: co-solvent 20% ethanol + ammonium acetate, pH 3.1, dilution to 200 ml with 5% dextrose or 0.9% sodium chloride infusions
Description: A composition called as “concentrate for infusion” should be diluted before administration to patients by a previously determined amount of usual infusion. The usual infusion is chosen preferably from the group of 5% dextrose infusion and 0.9% sodium chloride infusion. It is well known for a skilled person in the art that such a dilute should be stable for at least 48 hours. To reproduce the dilution scheme applied in the case of Monistat® (previously marketed as a concentrate for infusion containing miconazole), one of the compositions of the present invention was diluted with 5% dextrose infusion and 0.9% sodium chloride infusion. Based on the previous results a composition comprising of 0.1% polysorbate 80, 20% ethanol and ammonium acetate pH 3.1 was chosen for further investigation. […]

[4] = 3% polysorbate 80 + 25% ethanol + ammonium acetate pH 3.1, pH 3.1, aqueous with cosolvent or surfactant or cyclodextrin, Table 5: 3% polysorbate 80 + 25% ethanol + ammonium acetate pH 3.1, read-out: Solubilized miconazole / ketoconazole / itraconazole ± S.D.
[5] = aqueous with cosolvent or surfactant or cyclodextrin, Table 5: 1.5% sodium taurocholeate + 1.5% polysorbate 80 + 15% ethanol + 10% PEG 400 + ammonium acetate pH 3.1, read-out: Solubilized miconazole / ketoconazole / itraconazole ± S.D.
[6] = pH 3.1, aqueous with cosolvent or surfactant or cyclodextrin, Table 5: 1.5% sodium taurocholeate + 1.5% polysorbate 80 + 25% ethanol + ammonium acetate pH 3.1, read-out: Solubilized miconazole / ketoconazole / itraconazole ± S.D.
[7] = pH 3.1, aqueous with cosolvent or surfactant or cyclodextrin, Table 5: 3% polysorbate 80 + 15% ethanol + 10% PEG 400 + ammonium acetate pH 3.1, read-out: Solubilized miconazole / ketoconazole / itraconazole ± S.D.
[8] = pH 3.1, aqueous with cosolvent or surfactant or cyclodextrin, Table 5: 3% polysorbate 80 + 15% ethanol + 10% propylene glycol + ammonium acetate pH 3.1, read-out: Solubilized miconazole / ketoconazole / itraconazole ± S.D.

In the case of `CCC(C)n1ncn(-c2ccc(N3CCN(c4ccc(OCC5COC(Cn6cncn6)(c6ccc(Cl)cc6Cl)O5)cc4)CC3)cc2)c1=O` (centres unmarked) [itraconazole], the solubility [1, 4] is reported as 0.057 ± 0.005 mg/mL, the “Solubility in the compositions of Table 5 (in words)” value (shortened to “Solubility in the compositions”) [1] is reported as “no substantial solubility” and the “Solubilized miconazole / ketoconazole / itraconazole ± S.D.” value [1] is reported as 0.026 ± 0.001 mg/mL. It also gave a solubility [1, 5] of 0.04 ± 0.001 mg/mL, a solubility [1, 6] of 0.04 ± 0.008 mg/mL and a solubility [1, 7] of 0.054 ± 0.002 mg/mL. For the same compound, the solubility [1, 8] was 0.04 ± 0.001 mg/mL, the Solubilized itraconazole ([2]; solvent system of Example 27) was 85 mg/mL and the Solubilized itraconazole ([2]; solvent system of Example 28) was 50 mg/mL. For the same compound, the Solubilized itraconazole ([2]; solvent system of Example 29) was 50 mg/mL, the Solubilized itraconazole ([2]; solvent system of Example 30) was 30 mg/mL and the Solubilized itraconazole ([2]; solvent system of Example 31) was 30 mg/mL.
With `CC(=O)N1CCN(c2ccc(OCC3COC(Cn4ccnc4)(c4ccc(Cl)cc4Cl)O3)cc2)CC1` (centres unmarked) [ketoconazole] the solubility [1, 4] was 139 ± 4.05 mg/mL, the “Solubility in the compositions” value [1] was “best solubility” and the “Solubilized miconazole / ketoconazole / itraconazole ± S.D.” value [1] was 126.54 ± 1.04 mg/mL. It also gave a solubility [1, 5] of 142 ± 2.85 mg/mL, a solubility [1, 6] of 137 ± 8.15 mg/mL and a solubility [1, 7] of 140 ± 3.99 mg/mL. The solubility [1, 8] was 124.7 ± 1.16 mg/mL.
Compound `Clc1ccc(COC(Cn2ccnc2)c2ccc(Cl)cc2Cl)c(Cl)c1` (centres unmarked) [miconazole] has a solubility ([1]; 0.05 M ammonium acetate in water, pH 3.1, aqueous buffer, 0.05 M ammonium acetate pH 3.1 in water, read-out: Solubilized miconazole ± S.D.) of 2.24 ± 0.36 mg/mL (≈ 5380 µM), a solubility ([1]; 0.05 M calcium gluconate in water, pH 3.1, aqueous buffer, 0.05 M calcium gluconate pH 3.1 in water, read-out: Solubilized miconazole ± S.D.) of 0.65 ± 0.06 mg/mL (≈ 1560 µM) and a solubility ([1]; 0.05 M potassium dihydrogen phosphate in water, pH 3.1, aqueous buffer, 0.05 M potassium dihydrogen phosphate pH 3.1 in water, read-out: Solubilized miconazole ± S.D.) of 0.77 ± 0.05 mg/mL (≈ 1850 µM). The solubility ([1]; 0.10% polysorbate 80 + 5% ethanol + ammonium acetate pH 3.1, pH 3.1, aqueous with cosolvent or surfactant or cyclodextrin, Table 3: 0.10% polysorbate 80 + 5% ethanol + ammonium acetate pH 3.1, read-out: Solubilized miconazole ± S.D.) was 2.39 ± 0.12 mg/mL, the solubility ([1]; 0.1% polysorbate 80 + 10% ethanol + ammonium acetate pH 3.1, pH 3.1, aqueous with cosolvent or surfactant or cyclodextrin, Table 3: 0.1% polysorbate 80 + 10% ethanol + ammonium acetate pH 3.1, read-out: Solubilized miconazole ± S.D.) was 4.52 ± 0.03 mg/mL and the solubility ([1]; 0.1% polysorbate 80 + 15% ethanol + ammonium acetate pH 3.1, pH 3.1, aqueous with cosolvent or surfactant or cyclodextrin, Table 3: 0.1% polysorbate 80 + 15% ethanol + ammonium acetate pH 3.1, read-out: Solubilized miconazole ± S.D.) was 10.8 ± 2.84 mg/mL. The solubility ([1]; 0.1% polysorbate 80 + 20% ethanol + ammonium acetate pH 3.1, pH 3.1, aqueous with cosolvent or surfactant or cyclodextrin, Table 3: 0.1% polysorbate 80 + 20% ethanol + ammonium acetate pH 3.1, read-out: Solubilized miconazole ± S.D.) was 35.1 ± 5.76 mg/mL, the solubility ([1]; 0.10% polysorbate 80 + 25% ethanol + ammonium acetate pH 3.1, pH 3.1, aqueous with cosolvent or surfactant or cyclodextrin, Table 2: 0.10% polysorbate 80 + 25% ethanol + ammonium acetate pH 3.1, read-out: Solubilized miconazole ± S.D.) was 36 ± 2.09 mg/mL and the solubility ([1]; 0.1% polysorbate 80 + 25% ethanol + ammonium acetate pH 3.1, pH 3.1, aqueous with cosolvent or surfactant or cyclodextrin, Table 3: 0.1% polysorbate 80 + 25% ethanol + ammonium acetate pH 3.1, read-out: Solubilized miconazole ± S.D.) was 36 ± 1.49 mg/mL. It also gave a solubility ([1]; 0.25% polysorbate 80 + 25% ethanol + ammonium acetate pH 3.1, pH 3.1, aqueous with cosolvent or surfactant or cyclodextrin, Table 2: 0.25% polysorbate 80 + 25% ethanol + ammonium acetate pH 3.1, read-out: Solubilized miconazole ± S.D.) of 34.4 ± 1.51 mg/mL, a solubility ([1]; 0.50% polysorbate 80 + 25% ethanol + ammonium acetate pH 3.1, pH 3.1, aqueous with cosolvent or surfactant or cyclodextrin, Table 2: 0.50% polysorbate 80 + 25% ethanol + ammonium acetate pH 3.1, read-out: Solubilized miconazole ± S.D.) of 44.72 ± 0.14 mg/mL and a solubility ([1]; 1.0% polysorbate 80 + 25% ethanol + ammonium acetate pH 3.1, pH 3.1, aqueous with cosolvent or surfactant or cyclodextrin, Table 2: 1.0% polysorbate 80 + 25% ethanol + ammonium acetate pH 3.1, read-out: Solubilized miconazole ± S.D.) of 42.6 ± 2.04 mg/mL. It also gave a solubility ([1]; 2.0% polysorbate 80 + 25% ethanol + ammonium acetate pH 3.1, pH 3.1, aqueous with cosolvent or surfactant or cyclodextrin, Table 2: 2.0% polysorbate 80 + 25% ethanol + ammonium acetate pH 3.1, read-out: Solubilized miconazole ± S.D.) of 37.9 ± 1.86 mg/mL, a solubility ([1]; 3% polysorbate 20 in water, aqueous with cosolvent or surfactant or cyclodextrin, 3% polysorbate 20 in water, read-out: Solubilized miconazole ± S.D.) of 0.81 ± 0.07 mg/mL (≈ 1950 µM) and a solubility ([1]; 3% polysorbate 60 in water, aqueous with cosolvent or surfactant or cyclodextrin, 3% polysorbate 60 in water, read-out: Solubilized miconazole ± S.D.) of 1.42 ± 0.1 mg/mL (≈ 3410 µM). It also gave a solubility ([1]; 3.0% polysorbate 80 + 25% ethanol + ammonium acetate pH 3.1, pH 3.1, aqueous with cosolvent or surfactant or cyclodextrin, Table 2: 3.0% polysorbate 80 + 25% ethanol + ammonium acetate pH 3.1, read-out: Solubilized miconazole ± S.D.) of 38.9 ± 0.61 mg/mL, a solubility [1, 4] of 34.1 ± 2.95 mg/mL and a solubility ([1]; 3% polysorbate 80 in water, aqueous with cosolvent or surfactant or cyclodextrin, 3% polysorbate 80 in water, read-out: Solubilized miconazole ± S.D.) of 1.52 ± 0.09 mg/mL (≈ 3650 µM). The “Solubility in the compositions” value [1] was “remarkable solubility”, the solubility ([1]; 4.0% polysorbate 80 + 25% ethanol + ammonium acetate pH 3.1, pH 3.1, aqueous with cosolvent or surfactant or cyclodextrin, Table 2: 4.0% polysorbate 80 + 25% ethanol + ammonium acetate pH 3.1, read-out: Solubilized miconazole ± S.D.) was 43.3 ± 2.61 mg/mL and the solubility ([1]; 5.0% polysorbate 80 + 25% ethanol + ammonium acetate pH 3.1, pH 3.1, aqueous with cosolvent or surfactant or cyclodextrin, Table 2: 5.0% polysorbate 80 + 25% ethanol + ammonium acetate pH 3.1, read-out: Solubilized miconazole ± S.D.) was 42.7 ± 0.81 mg/mL. The solubility ([1]; 25% ethanol in water, aqueous with cosolvent or surfactant or cyclodextrin, 25% ethanol in water, read-out: Solubilized miconazole ± S.D.) was 0.021 ± 0.01 mg/mL (≈ 50.5 µM), the solubility ([1]; 30% glycerol in water, aqueous with cosolvent or surfactant or cyclodextrin, 30% glycerol in water, read-out: Solubilized miconazole ± S.D.) was 0.024 ± 0.006 mg/mL (≈ 57.7 µM) and the solubility ([1]; 30% macrogol 400 in water, aqueous with cosolvent or surfactant or cyclodextrin, 30% macrogol 400 in water, read-out: Solubilized miconazole ± S.D.) was 0.022 ± 0.008 mg/mL (≈ 52.9 µM). The solubility ([1]; 60% propylene glycol in water, aqueous with cosolvent or surfactant or cyclodextrin, 60% propylene glycol in water, read-out: Solubilized miconazole ± S.D.) was 0.36 ± 0.12 mg/mL (≈ 865 µM), the “Solubilized miconazole / ketoconazole / itraconazole ± S.D.” value [1] was 38.38 ± 1.53 mg/mL and the solubility [1, 5] was 34.8 ± 2.36 mg/mL. The solubility [1, 6] was 32.1 ± 2.86 mg/mL, the solubility [1, 7] was 22 ± 1.62 mg/mL and the solubility [1, 8] was 10.7 ± 0.69 mg/mL. The “Concentration of polysorbate 80 necessary to keep miconazole in solution on dilution” value (“Concentration” below) ([3]; 10 mg/ml miconazole in composition) was 0.1%^, the “Concentration” value ([3]; 20 mg/ml miconazole in composition) was 3% and the “Concentration” value ([3]; 30 mg/ml miconazole in composition) was 3%. The “Stability of diluted composition” value ([3]; 10 ml of 0.1% polysorbate 80, 20% ethanol, ammonium acetate pH 3.1 containing 20 mg/ml miconazole, diluted to 200 ml with 5% dextrose or 0.9% sodium chloride infusion) was “not stable for 48 hours”.
